Reference: article PMC2893943 (Nanoscale Research Letters, 2010)

Assays:
[1] = tested on: LPS-induced inflammation model in rats; assay type: in vivo, Sprague–Dawley rats; details: for ED50 based on neutrophil infiltration and cytokine production data: IT instillation of nanosuspension; for ED50 based on neutrophil infiltration and cytokine production data / EDmax / dose of maximum effect (EDmax): rat LPS model; for ED50 in the LPS assay: IT nanosuspension prior to LPS challenge, inhibition of neutrophil infiltration or TNFα production in BALF; for EDmax / dose of maximum effect (EDmax): IT nanosuspension
adrenal [2] = experiment: six-day repeat dose side effect study: adrenal involution; assay type: in vivo, Sprague–Dawley rats; details: at the ED50 dose (30 μg fluticasone, 100 μg ciclesonide), IT once daily, 6 days
thymus [3] = experiment: six-day repeat dose side effect study: thymus involution; assay type: in vivo, Sprague–Dawley rats; details: at the ED50 dose, IT once daily, 6 days
[4] = particle size distribution before and after wet milling; assay type: physicochemical; details: for particle size D50 of the bulk material: before micronization; for particle size D50 after micronization: nanosuspension, wet milling
[5] = tested on: antigen-induced airway inflammation (eosinophils in BALF); details: cited from earlier work; for ED50, antigen-induced influx of eosinophils in airway BALF and lung tissue: IT-administered; for ED50 for the inhibition of eosinophil infiltration into BALF: as quoted with the 7-day side effect study
adrenal [6] = details: 7-day study, cited from earlier work
thymus [7] = details: 7-day study, cited from earlier work
bone growth = details: 7-day study; cited from earlier work
[8] = tested on: plasma corticosterone (HPA axis suppression); details: fluticasone 0.1 mg/kg; ciclesonide 0.01 to 0.1 mg/kg/day; 28-day; cited from earlier work
[9] = cited from earlier work
[10] = six-day repeat dose side effect study: plasma drug exposure by LC/MS/MS; assay type: in vivo, Sprague–Dawley rats; details: 2 h post the last dose
[11] = tested on: plasma corticosterone (HPA axis suppression); experiment: six-day repeat dose side effect study: plasma corticosterone level; assay type: in vivo, Sprague–Dawley rats; details: ED50 doses, 30 μg fluticasone, 2 h following the last dose
[12] = background statement, no reference given; cited from earlier work
[13] = IT administration, on the basis of dose

Structure (SMILES)	ED50 based on neutrophil infiltration and cytokine production data [1] [mg]	ED50 in the LPS assay [1] [µg]	EDmax [1] [mg]	dose of maximum effect (EDmax) [1] [µg]	average adrenal involution (adrenal [2]) [%]	average thymus involution (thymus [3]) [%]	particle size D50 of the bulk material [4] [μm]	particle size D50 after micronization [4] [μm]	ED50, antigen-induced influx of eosinophils in airway BALF and lung tissue [5] [mg/kg]	ED50 for the inhibition of eosinophil infiltration into BALF [5] [mg/kg]	effect on plasma corticosterone levels [8]	plasma protein binding [9] [%]	further results
CC(C)C(=O)OCC(=O)[C@@]12O[C@H](C3CCCCC3)O[C@@H]1C[C@H]1[C@@H]3CCC4=CC(=O)C=C[C@]4(C)[C@H]3[C@@H](O)C[C@@]12C [ciclesonide]	0.1	100	0.3	300	7.6 ± 5.3	41.0 ± 4.3	56	0.22	0.49	0.75	did not change corticosterone levels	> 99	fold less potent than fluticasone (ratio of ED50) ([1]; 100 μg/30 μg): threefold; fold less potent than fluticasone in terms of ED50 ([5]; antigen-induced airway eosinophilia and Sephadex-induced lung edema): 7–9; ED50, inhibition of accumulation of eosinophils in BALF ([5]; separate study, same preclinical model): 0.5 mg/kg; fold less potent than fluticasone at inducing adrenal involution (adrenal [6]): 44; fold less potent than fluticasone at inducing thymus involution (thymus [7]): sixfold; fold less potent than fluticasone at decreasing bone growth (bone growth): 22
C[C@]12C=CC(=O)C=C1CC[C@@H]1[C@@H]2[C@@H](O)C[C@@]2(C)[C@H]1C[C@H]1O[C@@H](C3CCCCC3)O[C@]12C(=O)CO [des-CIC, desisobutyryl-ciclesonide]	–	–	–	–	–	–	–	–	–	–	–	> 99	ratio of systemic exposure, des-CIC versus fluticasone at ED50 doses [10]: greater than sixfold
CCC(=O)O[C@]1(C(=O)SCF)[C@H](C)C[C@H]2[C@@H]3C[C@H](F)C4=CC(=O)C=C[C@]4(C)[C@@]3(F)[C@@H](O)C[C@@]21C [fluticasone, fluticasone propionate]	0.03	30	0.1	100	16.6 ± 5.1	59.5 ± 5.8	35	0.24	0.068	0.095	significantly suppressed	90	fold lower level of plasma corticosterone than 100 μg ciclesonide [11]: approximately 10; fold more potent at inducing adrenal involution compared to ciclesonide (adrenal [6]; [13]): approximately 44; fold more potent at inducing thymus involution compared to ciclesonide (thymus [7]; [13]): sixfold; bioavailability [12]: < 1%; clearance [12]: ~ liver blood flow
